Experiments:
GLP-1 receptor [1] = molecular target: T1, GLP-1 receptor (Homo sapiens, UniProt P43220); assay: TagLite binding assay, GLP-1 receptor; conditions: for % Binding avg at CMax: GLP-1 receptor
GIP receptor [2] = molecular target: T2, GIP receptor (Homo sapiens, UniProt P48546); assay: TagLite binding assay, GIP receptor; conditions: for % Binding avg at CMax: GIP receptor
T2 sequence (P48546 22-466): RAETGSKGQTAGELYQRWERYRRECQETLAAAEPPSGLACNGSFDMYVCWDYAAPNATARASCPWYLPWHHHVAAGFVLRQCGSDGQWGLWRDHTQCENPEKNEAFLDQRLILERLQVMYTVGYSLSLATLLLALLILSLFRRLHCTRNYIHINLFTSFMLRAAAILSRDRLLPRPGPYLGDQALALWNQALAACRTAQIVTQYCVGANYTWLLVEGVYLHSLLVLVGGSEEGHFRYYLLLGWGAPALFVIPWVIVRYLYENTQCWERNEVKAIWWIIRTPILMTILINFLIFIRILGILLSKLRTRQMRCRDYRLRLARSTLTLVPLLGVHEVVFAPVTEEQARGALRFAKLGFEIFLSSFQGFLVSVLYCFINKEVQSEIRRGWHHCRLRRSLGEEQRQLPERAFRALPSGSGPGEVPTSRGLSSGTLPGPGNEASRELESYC

GLP-1 receptor [3] = molecular target: T1, GLP-1 receptor; assay: HSA modulated binding assay, GLP-1 receptor; conditions: for IC50: IC 50, GLP-1 receptor
GIP receptor [4] = molecular target: T2, GIP receptor; assay: HSA modulated binding assay, GIP receptor; conditions: for % Binding avg at CMax: GIP receptor; for IC50: IC 50, GIP receptor
[5] = Pharmacokinetics in monkeys, SC dosing; assay type: in vivo, cynomolgus monkeys; conditions: for half-life: cynomolgus monkey, in vivo, male cynomolgus monkeys, SC single dose 0.2 mg/kg, 0.1% bovine serum albumin in phosphate buffered saline, mean; for persistence in the blood stream as compared to tirzepatide: cynomolgus monkeys, SC 0.2 mg/kg
Description: (§1) Subcutaneous (SC) dosing of the compounds in a vehicle of 0.1% bovine serum albumin in phosphate buffered saline solution was performed with male cynomolgus monkeys. […] Samples were obtained at 1, 4, 8, 12, 24, 48, 72, 96, 120, 168, 192, 240 and 336 hours after the single dose was administered.

[6] = tested on: mice fed Gubra amylin NASH (GAN) diet; assay: Biological effects in GAN diet NASH mice; assay type: in vivo; conditions: after two weeks, 10 mg/kg group; for Gal-3 Total: liver Galectin-3, histological quantitative assessment; for TG Total: liver triglycerides, GAN diet NASH mice; for α-SMA Total: liver α-smooth muscle actin, histological quantitative assessment
Description: NASH was induced in mice by feeding mice a Gubra amylin NASH (GAN) diet as described in Boland et al. World J Gastroenterol. 2019, 25(33): 4904-4920. One week prior to administration of a first dose of compounds, the mice were weighed and randomized, and their food intake was measured. Mice were randomly assigned to dosing groups, with twelve mice per group. […] Compound dose titration (nmol/kg): 0.6 (day 0), 1.2 (day 1), 2.4 (day 2), 4.8 (day 3), 4.8 (day 4), 12 (day 5), 30.0 (from day 6).
After two weeks, animals were sacrificed. Plasma enzymes (P-ALT (alanine aminotransferase) and P-AST (aspartate aminotransferase)), total plasma triglycerides, and total plasma cholesterol were measured, and terminal necropsy of each liver was carried out, determining relative liver weight as a percentage of body weight, assaying total liver biochemistry including total liver triglycerides, plasma insulin and total liver cholesterol, as well as histological evaluation of Galectin-3, and alpha-smooth muscle actin.

[7] = Pharmacokinetics studies of formulations, SC dosing; assay type: in vivo, cynomolgus monkeys; conditions: for half-life: cynomolgus monkey, in vivo, SC 0.2 mg/kg, mean
Description: as §1
Formulation 1 included the compound in a vehicle of 0.1% bovine serum albumin in phosphate buffered saline solution.

T1 sequence (P43220 24-463): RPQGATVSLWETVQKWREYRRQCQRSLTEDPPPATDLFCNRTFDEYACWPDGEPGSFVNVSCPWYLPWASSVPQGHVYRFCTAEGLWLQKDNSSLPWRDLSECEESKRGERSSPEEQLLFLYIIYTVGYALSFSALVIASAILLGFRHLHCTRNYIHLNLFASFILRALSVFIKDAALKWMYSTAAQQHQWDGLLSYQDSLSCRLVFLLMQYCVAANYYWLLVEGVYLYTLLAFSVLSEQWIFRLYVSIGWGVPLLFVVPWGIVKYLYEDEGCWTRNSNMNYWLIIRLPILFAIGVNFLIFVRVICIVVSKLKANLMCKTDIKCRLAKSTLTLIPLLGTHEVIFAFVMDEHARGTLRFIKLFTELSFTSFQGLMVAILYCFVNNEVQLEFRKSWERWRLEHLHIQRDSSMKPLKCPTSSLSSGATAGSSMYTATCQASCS

In the case of `CC[C@H](C)[C@H](NC(=O)[C@H](CC(C)C)NC(=O)[C@H](Cc1c[nH]c2ccccc12)NC(=O)[C@H](CCC(N)=O)NC(=O)[C@@H](NC(=O)[C@H](Cc1ccccc1)NC(=O)[C@H](C)NC(=O)[C@H](CCCCNC(=O)COCCOCCNC(=O)COCCOCCNC(=O)CC[C@H](NC(=O)CCCCCCCCCCCCCCCCCCP(=O)(O)O)P(=O)(O)O)NC(=O)[C@H](CCC(N)=O)NC(=O)[C@H](C)NC(=O)[C@@H](NC(=O)[C@H](CCCCN)NC(=O)[C@H](CC(=O)O)NC(=O)[C@H](CC(C)C)NC(=O)C(C)(C)NC(=O)[C@@H](NC(=O)[C@H](CO)NC(=O)[C@H](Cc1ccc(O)cc1)NC(=O)[C@H](CC(=O)O)NC(=O)[C@H](CO)NC(=O)[C@@H](NC(=O)[C@H](Cc1ccccc1)NC(=O)[C@@H](NC(=O)CNC(=O)[C@H](CCC(=O)O)NC(=O)C(C)(C)NC(=O)[C@@H](N)Cc1ccc(O)cc1)[C@@H](C)O)[C@@H](C)O)[C@@H](C)CC)[C@@H](C)CC)C(C)C)C(=O)N[C@@H](C)C(=O)NCC(=O)NCC(=O)N1CCC[C@H]1C(=O)N[C@@H](CO)C(=O)N[C@@H](CO)C(=O)NCC(=O)N[C@@H](C)C(=O)N1CCC[C@H]1C(=O)N1CCC[C@H]1C(=O)N1CCC[C@H]1C(=O)N[C@@H](CO)C(N)=O` [Compound 12], the IC50 (GLP-1 receptor [1]) is reported as 129 nM, the “% Binding avg at CMax” value (GLP-1 receptor [1]) is reported as 0.09% and the IC50 (GIP receptor [2]) is reported as 137 nM. The “% Binding avg at CMax” value (GIP receptor [2]) was −1.47%, the “% Binding avg at CMax” value (GLP-1 receptor [3]; GLP-1 receptor, 0% HSA) was 0.22% and the “% Binding avg at CMax” value (GLP-1 receptor [3]; GLP-1 receptor, 2% HSA) was 12.04%. For the same molecule, the IC50 (GLP-1 receptor [3]; 0% HSA) was 145 nM, the IC50 (GLP-1 receptor [3]; 2% HSA) was 763 nM and the “% Binding avg at CMax” value (GIP receptor [4]; 0% HSA) was −3.33%. The “% Binding avg at CMax” value (GIP receptor [4]; 2% HSA) was 5.52%, the IC50 (GIP receptor [4]; 0% HSA) was 256 nM and the IC50 (GIP receptor [4]; 2% HSA) was 436 nM. The half-life [5] was 104 h and the “persistence in the blood stream as compared to tirzepatide” value [5] was “significantly greater persistence”.
For `CC[C@H](C)[C@H](NC(=O)[C@H](CC(C)C)NC(=O)[C@H](Cc1c[nH]c2ccccc12)NC(=O)[C@H](CCC(N)=O)NC(=O)[C@@H](NC(=O)[C@H](Cc1ccccc1)NC(=O)[C@H](C)NC(=O)[C@H](CCCCNC(=O)COCCOCCNC(=O)COCCOCCNC(=O)CC[C@H](NC(=O)CCCCCCCCCCCCCCCCCCP(=O)(O)O)C(=O)O)NC(=O)[C@H](CCC(N)=O)NC(=O)[C@H](C)NC(=O)[C@@H](NC(=O)[C@H](CCCCN)NC(=O)[C@H](CC(=O)O)NC(=O)[C@H](CC(C)C)NC(=O)C(C)(C)NC(=O)[C@@H](NC(=O)[C@H](CO)NC(=O)[C@H](Cc1ccc(O)cc1)NC(=O)[C@H](CC(=O)O)NC(=O)[C@H](CO)NC(=O)[C@@H](NC(=O)[C@H](Cc1ccccc1)NC(=O)[C@@H](NC(=O)CNC(=O)[C@H](CCC(=O)O)NC(=O)C(C)(C)NC(=O)[C@@H](N)Cc1ccc(O)cc1)[C@@H](C)O)[C@@H](C)O)[C@@H](C)CC)[C@@H](C)CC)C(C)C)C(=O)N[C@@H](C)C(=O)NCC(=O)NCC(=O)N1CCC[C@H]1C(=O)N[C@@H](CO)C(=O)N[C@@H](CO)C(=O)NCC(=O)N[C@@H](C)C(=O)N1CCC[C@H]1C(=O)N1CCC[C@H]1C(=O)N1CCC[C@H]1C(=O)N[C@@H](CO)C(N)=O` [Compound 4], the “Gal-3 Total” value [6] was 137 ± 15 mg, the “TG Total” value [6] was 70 ± 5 mg per/ liver and the “α-SMA Total” value [6] was 102 ± 10 mg. The half-life [5] was 118 h, the “persistence in the blood stream as compared to tirzepatide” value [5] was “significantly greater persistence” and the “persistence in the blood stream as compared to tirzepatide in the identical formulation” value ([7]; Formulation 1 and Formulation 2) was “significantly greater persistence”. The half-life ([7]; Formulation 1 (0.1% bovine serum albumin in phosphate buffered saline)) was 106 h and the half-life ([7]; Formulation 2 (40% propylene glycol and 60% 10 mM pH 6 citrate buffer)) was 120 h.
For tirzepatide [reference compound], the “% Binding avg at CMax” value (GLP-1 receptor [1]) was 0.20%, the “% Binding avg at CMax” value (GIP receptor [2]) was −1.21% and the “% Binding avg at CMax” value (GLP-1 receptor [3]; GLP-1 receptor, 0% HSA) was −0.14%. For the same molecule, the “% Binding avg at CMax” value (GLP-1 receptor [3]; GLP-1 receptor, 2% HSA) was 33.01%, the “Ratio of HSA/No HSA” value (GLP-1 receptor [3]; GLP-1 receptor, binding with 2% HSA to binding with 0% HSA) was 12.8 and the “% Binding avg at CMax” value (GIP receptor [4]; 0% HSA) was −3.05%. For the same molecule, the “% Binding avg at CMax” value (GIP receptor [4]; 2% HSA) was 10.07%, the “Gal-3 Total” value [6] was 138 ± 17 mg and the “TG Total” value [6] was 80 ± 11 mg per/ liver. The “α-SMA Total” value [6] was 108 ± 22 mg.
In the case of `CC[C@H](C)[C@H](NC(=O)[C@H](CC(C)C)NC(=O)[C@H](Cc1c[nH]c2ccccc12)NC(=O)[C@H](CCC(N)=O)NC(=O)[C@@H](NC(=O)[C@H](Cc1ccccc1)NC(=O)[C@H](C)NC(=O)[C@H](CCCCNC(=O)COCCOCCNC(=O)COCCOCCNC(=O)CC[C@H](NC(=O)CCCCCCCCCCCCCCCCCCC(=O)O)P(=O)(O)O)NC(=O)[C@H](CCC(N)=O)NC(=O)[C@H](C)NC(=O)[C@@H](NC(=O)[C@H](CCCCN)NC(=O)[C@H](CC(=O)O)NC(=O)[C@H](CC(C)C)NC(=O)C(C)(C)NC(=O)[C@@H](NC(=O)[C@H](CO)NC(=O)[C@H](Cc1ccc(O)cc1)NC(=O)[C@H](CC(=O)O)NC(=O)[C@H](CO)NC(=O)[C@@H](NC(=O)[C@H](Cc1ccccc1)NC(=O)[C@@H](NC(=O)CNC(=O)[C@H](CCC(=O)O)NC(=O)C(C)(C)NC(=O)[C@@H](N)Cc1ccc(O)cc1)[C@@H](C)O)[C@@H](C)O)[C@@H](C)CC)[C@@H](C)CC)C(C)C)C(=O)N[C@@H](C)C(=O)NCC(=O)NCC(=O)N1CCC[C@H]1C(=O)N[C@@H](CO)C(=O)N[C@@H](CO)C(=O)NCC(=O)N[C@@H](C)C(=O)N1CCC[C@H]1C(=O)N1CCC[C@H]1C(=O)N1CCC[C@H]1C(=O)N[C@@H](CO)C(N)=O` [Compound 8], the “Gal-3 Total” value [6] is reported as 117 ± 12 mg, the “TG Total” value [6] is reported as 75 ± 7 mg per/ liver and the “α-SMA Total” value [6] is reported as 83 ± 8 mg.

— patent US11744873B2, “Compositions and methods for the treatment of metabolic and liver disorders” (Viking Therapeutics, Inc., priority 2021, dated 2023)
